Structures are written as SMILES.

Usually IC50 stands for the point on the concentration scale where inhibition reaches its midpoint.

One test concerns the target T1, HDAC6 human recombinant (Homo sapiens, UniProt Q9UBN7).
T1 construct: purchased Calbiochem 382180
T1 sequence (Q9UBN7 1-1215): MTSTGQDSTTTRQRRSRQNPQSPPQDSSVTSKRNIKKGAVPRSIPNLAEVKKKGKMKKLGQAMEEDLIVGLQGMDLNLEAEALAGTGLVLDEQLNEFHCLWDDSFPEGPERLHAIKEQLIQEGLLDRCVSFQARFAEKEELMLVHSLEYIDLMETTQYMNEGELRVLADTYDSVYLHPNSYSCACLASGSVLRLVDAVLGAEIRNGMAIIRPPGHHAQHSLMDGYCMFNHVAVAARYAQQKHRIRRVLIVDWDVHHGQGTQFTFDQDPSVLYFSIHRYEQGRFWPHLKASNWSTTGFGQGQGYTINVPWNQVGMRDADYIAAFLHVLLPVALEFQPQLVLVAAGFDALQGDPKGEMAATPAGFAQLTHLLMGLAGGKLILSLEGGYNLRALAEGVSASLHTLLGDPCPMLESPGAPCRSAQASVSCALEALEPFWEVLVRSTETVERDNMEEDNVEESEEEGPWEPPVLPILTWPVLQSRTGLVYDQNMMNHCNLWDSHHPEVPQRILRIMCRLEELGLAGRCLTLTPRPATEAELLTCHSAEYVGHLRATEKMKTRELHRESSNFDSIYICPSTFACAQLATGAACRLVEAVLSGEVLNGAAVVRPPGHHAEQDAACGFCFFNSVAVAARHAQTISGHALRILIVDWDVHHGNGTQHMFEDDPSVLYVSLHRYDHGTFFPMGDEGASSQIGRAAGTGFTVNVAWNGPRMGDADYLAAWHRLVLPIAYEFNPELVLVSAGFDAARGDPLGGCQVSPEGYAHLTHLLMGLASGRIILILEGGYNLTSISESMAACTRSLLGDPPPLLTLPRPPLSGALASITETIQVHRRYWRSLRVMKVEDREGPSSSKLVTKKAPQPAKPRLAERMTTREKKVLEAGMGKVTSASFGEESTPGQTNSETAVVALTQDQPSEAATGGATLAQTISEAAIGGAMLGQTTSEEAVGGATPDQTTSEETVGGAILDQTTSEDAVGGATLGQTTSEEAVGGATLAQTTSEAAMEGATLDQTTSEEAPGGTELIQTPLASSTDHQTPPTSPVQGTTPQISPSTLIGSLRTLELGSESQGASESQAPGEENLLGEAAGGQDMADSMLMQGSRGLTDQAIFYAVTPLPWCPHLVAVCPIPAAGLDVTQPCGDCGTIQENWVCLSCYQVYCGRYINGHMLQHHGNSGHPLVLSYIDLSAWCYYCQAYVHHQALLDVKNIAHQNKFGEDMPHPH
Description: Inhibition of HDAC6 activity (fluorimetric assay). Type of test: biochemical. Conditions: test concentrations 0.1, 1, 10, 100 and 1000 nM; 37° C., 60 minutes. Summed up:
(§1)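 HDAC1 tested with the kit assay mixture at 100, 1000 and 10000 nM compound; recombinant human HDAC6 at 0.1, 1, 10, 100 and 1000 nM. Reaction ran 60 min at 37° C, then developer was added for 30 min at 37° C and fluorescence quantified.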

The target of a further test is T2, HDAC1 (Homo sapiens, UniProt Q13547).
T2 construct: purchased Enzolifesciences BML-AK511
T2 sequence (Q13547 whole entry): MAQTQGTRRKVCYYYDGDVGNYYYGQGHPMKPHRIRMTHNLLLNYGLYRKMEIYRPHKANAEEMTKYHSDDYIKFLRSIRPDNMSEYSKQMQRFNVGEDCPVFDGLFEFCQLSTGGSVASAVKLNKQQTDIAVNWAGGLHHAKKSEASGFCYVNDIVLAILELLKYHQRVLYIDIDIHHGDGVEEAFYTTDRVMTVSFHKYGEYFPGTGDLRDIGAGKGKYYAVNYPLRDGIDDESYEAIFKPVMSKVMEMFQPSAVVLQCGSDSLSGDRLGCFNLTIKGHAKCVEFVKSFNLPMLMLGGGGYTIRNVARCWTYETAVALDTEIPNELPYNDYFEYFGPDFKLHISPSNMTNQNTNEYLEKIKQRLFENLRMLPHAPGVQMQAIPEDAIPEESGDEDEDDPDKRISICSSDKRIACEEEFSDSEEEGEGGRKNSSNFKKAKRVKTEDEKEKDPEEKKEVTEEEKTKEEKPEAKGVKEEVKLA
Briefly: Inhibition of HDAC1 activity (HDAC1 fluorimetric drug discovery assay kit). Type of test: biochemical. Conditions: test concentrations 100, 1000 and 10000 nM; 37° C., 60 minutes. In a few lines:
as §1

As for `CN1CCN(c2ccccc2CN2CCC(c3ccnc4c3ccn4Cc3ccc(C(=O)NO)cc3)CC2)CC1` [Compound 984, N-hydroxy-4-((4-(1-(2-(4-methylpiperazin-1-yl)benzyl)piperidin-4-yl)-1H-pyrrolo[2,3-b]pyridin-1-yl)methyl)benzamide], the IC50 at HDAC6 human recombinant is 7.6 nM; at HDAC1 it was 530 nM.
For `O=C(NO)c1ccc(Cn2ccc3c(C4CCN(Cc5cccc(CN6CCOCC6)c5)CC4)ccnc32)cc1` [Compound 985, N-hydroxy-4-((4-(1-(3-(morpholinomethyl)benzyl)piperidin-4-yl)-1H-pyrrolo[2,3-b]pyridin-1-yl)methyl)benzamide], in that order: 2.3 nM and 510 nM.
In the same order, the values of `CN1CCN(Cc2cccc(CN3CCC(c4ccnc5c4ccn5Cc4ccc(C(=O)NO)cc4)CC3)c2)CC1` [Compound 986, N-hydroxy-4-((4-(1-(3-((4-methylpiperazin-1-yl)methyl)benzyl)piperidin-4-yl)-1H-pyrrolo[2,3-b]pyridin-1-yl)methyl)benzamide] are 11.5 nM and 420 nM.
As for `O=C(NO)c1ccc(Cn2ccc3c(C4CCN(Cc5ccc(CN6CCOCC6)cc5)CC4)ccnc32)cc1` [Compound 987, N-hydroxy-4-((4-(1-(4-(morpholinomethyl)benzyl)piperidin-4-yl)-1H-pyrrolo[2,3-b]pyridin-1-yl)methyl)benzamide], the IC50 worked out at 5.7 nM at HDAC6 human recombinant and 320 nM on HDAC1.
For `CN1CCN(Cc2ccc(CN3CCC(c4ccnc5c4ccn5Cc4ccc(C(=O)NO)cc4)CC3)cc2)CC1` [Compound 988, N-hydroxy-4-((4-(1-(4-((4-methylpiperazin-1-yl)methyl)benzyl)piperidin-4-yl)-1H-pyrrolo[2,3-b]pyridin-1-yl)methyl)benzamide], in that order: 5.9 nM and 290 nM.
In the same order, the values of `C[C@@H]1CN(c2ccnc3c2ccn3Cc2ccc(C(=O)NO)cc2)C[C@H](C)N1Cc1ccccc1` [Compound 990, 4-((4-((3S,5R)-4-benzyl-3,5-dimethylpiperazin-1-yl)-1H-pyrrolo[2,3-b]pyridin-1-yl)methyl)-N-hydroxybenzamide] are 4.6 nM and 1360 nM.
In the same order, the values of `CC(C)(O)CN1CCC(c2ccc3ccn(Cc4ccc(C(=O)NO)cc4)c3n2)CC1` [Compound 991, N-hydroxy-4-((6-(1-(2-hydroxy-2-methylpropyl)piperidin-4-yl)-1H-pyrrolo[2,3-b]pyridin-1-yl)methyl)benzamide] are 32 nM and 880 nM.
As for `O=C(NO)c1ccc(Cn2ccc3ccc(C4CCN(Cc5cccnc5)CC4)nc32)cc1` [Compound 992, N-hydroxy-4-((6-(1-(pyridin-3-ylmethyl)piperidin-4-yl)-1H-pyrrolo[2,3-b]pyridin-1-yl)methyl)benzamide], the IC50 at HDAC6 human recombinant amounted to 34 nM; at HDAC1 it was 860 nM.
In the same order, the values of `COc1cccc(CN2[C@H](C)CN(c3cnc4c(ccn4Cc4ccc(C(=O)NO)cc4)c3)C[C@@H]2C)c1` [Compound 1003] are 7.7 nM and 2680 nM.
As for `C[C@@H]1CN(c2cnc3c(ccn3Cc3ccc(C(=O)NO)cc3)c2)C[C@H](C)N1Cc1cccnc1` [Compound 1004, 4-((5-((3S,5R)-3,5-dimethyl-4-(pyridin-3-ylmethyl)piperazin-1-yl)-1H-pyrrolo[2,3-b]pyridin-1-yl)methyl)-N-hydroxybenzamide], the IC50 on HDAC6 human recombinant stood at 3.2 nM; against HDAC1 it was 610 nM.
For `C[C@@H]1CN(c2cnc3c(ccn3Cc3ccc(C(=O)NO)cc3)c2)C[C@H](C)N1Cc1ncccn1` [Compound 1005, 4-((5-((3S,5R)-3,5-dimethyl-4-(pyrimidin-2-ylmethyl)-1-yl)-1H-pyrrolo[2,3-b]pyridin-1-yl)methyl)-N-hydroxybenzamide], in that order: 5.5 nM and 750 nM.
For `O=C(NO)c1ccc(Cn2ccc3c(C4CCN(Cc5cccnc5)CC4)ccnc32)cc1` [Compound 1014, N-hydroxy-4-((4-(1-(pyridin-3-ylmethyl)piperidin-4-yl)-1H-pyrrolo[2,3-b]pyridin-1-yl)methyl)benzamide], in that order: 8.5 nM and 670 nM.
For `CC(CC(=O)O)N1CCC(c2ccnc3c2ccn3Cc2ccc(C(=O)NO)cc2)CC1` (centres unmarked) [Compound 1015, 3-(4-(1-(4-(hydroxycarbamoyl)benzyl)-1H-pyrrolo[2,3-b]pyridin-4-yl)piperidin-1-yl)butanoic acid], in that order: 8.5 nM and 670 nM.
With `CC(C)(O)CN1C2CCC1CN(c1ccnc3c1ccn3Cc1ccc(C(=O)NO)cc1)C2` [Compound 1017, N-hydroxy-4-((4-(8-(2-hydroxy-2-methylpropyl)-3,8-diazabicyclo[3.2.1]octan-3-yl)-1H-pyrrolo[2,3-b]pyridin-1-yl)methyl)benzamide], the IC50 came to 6 nM at HDAC6 human recombinant and 220 nM against HDAC1.
In the same order, the values of `O=C(NO)c1ccc(Cn2ccc3c(N4CC5CCC(C4)N5Cc4cccnc4)ccnc32)cc1` [Compound 1019, N-hydroxy-4-((4-(8-(pyridin-3-ylmethyl)-3,8-diazabicyclo[3.2.1]octan-3-yl)-1H-pyrrolo[2,3-b]pyridin-1-yl)methyl)benzamide] are 6.8 nM and 260 nM.
For `COc1ccc(CN2CCC3(CCN(c4ccnc5c4ccn5Cc4ccc(C(=O)NO)cc4)CC3)C2)cc1` [Compound 1021, N-hydroxy-4-((4-(2-(4-methoxybenzyl)-2,8-diazaspiro[4.5]decan-8-yl)-1H-pyrrolo[2,3-b]pyridin-1-yl)methyl)benzamide], in that order: 14 nM and 240 nM.
For the compound `O=C(NO)c1ccc(Cn2ccc3c(N4CCC5(CCN(Cc6cccnc6)C5)CC4)ccnc32)cc1` [Compound 1022, N-hydroxy-4-((4-(2-(pyridin-3-ylmethyl)-2,8-diazaspiro[4.5]decan-8-yl)-1H-pyrrolo[2,3-b]pyridin-1-yl)methyl)benzamide], the values for the IC50 at HDAC6 human recombinant and on HDAC1 were 5.8 nM and 70 nM, respectively.
Consider `COc1ccc(CN2CC3(CCN(c4ccnc5c4ccn5Cc4ccc(C(=O)NO)cc4)CC3)C2)cc1` [Compound 1023, N-hydroxy-4-((4-(2-(4-methoxybenzyl)-2,7-diazaspiro[3.5]nonan-7-yl)-1H-pyrrolo[2,3-b]pyridin-1-yl)methyl)benzamide], for which the IC50 on HDAC6 human recombinant was found to be 3.3 nM; against HDAC1, 560 nM.
For `O=C(NO)c1ccc(Cn2ccc3c(N4CCC5(CC4)CN(Cc4cccnc4)C5)ccnc32)cc1` [Compound 1024, N-hydroxy-4-((4-(2-(pyridin-3-ylmethyl)-2,7-diazaspiro[3.5]nonan-7-yl)-1H-pyrrolo[2,3-b]pyridin-1-yl)methyl)benzamide], in that order: 1.8 nM and 190 nM.
Turning to `CC(C)(O)CN1CC2(CCN(c3ccnc4c3ccn4Cc3ccc(C(=O)NO)cc3)CC2)C1` [Compound 1025, N-hydroxy-4-((4-(2-(2-hydroxy-2-methylpropyl)-2,7-diazaspiro[3.5]nonan-7-yl)-1H-pyrrolo[2,3-b]pyridin-1-yl)methyl)benzamide], the IC50 came to 1.1 nM on HDAC6 human recombinant and 170 nM on HDAC1.
Turning to `CC(C)(C(=O)O)N1CCC(c2ccnc3c2ccn3Cc2ccc(C(=O)NO)cc2)CC1` [Compound 1028, 2-(4-(1-(4-(hydroxycarbamoyl)benzyl)-1H-pyrrolo[2,3-b]pyridin-4-yl)piperidin-1-yl)-2-methylpropionic acid], the IC50 at HDAC6 human recombinant was determined as 1.4 nM; against HDAC1, 420 nM.
In the same order, the values of `O=C(NO)c1ccc(Cn2ccc3cc(N4CCC5(CCN(Cc6cccnc6)C5)CC4)cnc32)cc1` [Compound 1101, N-hydroxy-4-((5-(2-(pyridin-3-ylmethyl)-2,8-diazaspiro[4.5]decan-8-yl)-1H-pyrrolo[2,3-b]pyridin-1-yl)methyl)benzamide] are 1 nM and 500 nM.

The values are drawn from patent publication US9650379B2 (CHONG KUN DANG PHARMACEUTICAL CORP., priority 2013, dated 2017).
